Results published in publication PMC7395068, “The evolution of strategies to minimise the risk of human drug-induced liver injury (DILI) in drug discovery and development” (Archives of Toxicology, 2020).
Like-named read-outs stand apart in the source and are kept apart here.

What was measured:
[1] = cited from earlier work
[2] = tested on: primary human hepatocytes, NIH3T3 fibroblasts, BSEP, CYP3A4; conditions: cited from earlier work; for Cellular toxicity (3T3 cells) / Combined Assay / GSH adduct HML / Hepatocyte cellular toxicity / MitoTox 3T3 / TDI CYP3A4 / hBSEP inhibition: In vitro Assay, ref Schadt 2015
HepG2 cells [3] = conditions: In vitro Assay; ref O'Brien 2006; cited from earlier work
human hepatocytes = conditions: In vitro Assay; ref Xu 2008; cited from earlier work
[4] = cited from earlier work; remark: listed apart in the source
hu-MPCC = conditions: cited from earlier work
RMPCC's = conditions: cited from earlier work
[5] = Plasma free fraction (fu) and unbound Cmax (Cmax,u); type: in vitro ADME, human; conditions: unbound plasma Cmax
Description: The prediction of DILI severity was evaluated further using the 3D combined HCI assays using plasma-free fraction. The majority of fu values were obtained from literature, when unavailable in-house prediction was utilised. Unbound plasma Cmax concentrations (Cmax,u) were derived by multiplying total plasma Cmax with the corresponding free fraction (fu) for each compound.

HepG2 = tested on: HepG2; set-up: method as in Albrecht 2019; conditions: In vitro Assay; ref Albrecht 2019; cited from earlier work
HepG2 cells [6] = conditions: cited from earlier work
[7] = tested on: THLE or HepG2 cells, isolated mitochondria, BSEP; conditions: cited from earlier work
PHH [8] = conditions: cited from earlier work
hLiMTs [9] = conditions: cited from earlier work
[10] = tested on: HepG2 C3A spheroid, BSEP, Glu/Gal in HepG2 cells, bioactivation; conditions: cited from earlier work
[11] = read-out: Human plasma Cmax; total plasma Cmax.tot, median of 9 literature references; cited from earlier work
[12] = plasma free fraction; cited from earlier work
PHH [13] = conditions: In vitro Assay; ref Albrecht 2019; cited from earlier work
[14] = tested on: THLE-Null and THLE-3A4 cells; conditions: In vitro Assay; ref Gustafsson 2014; cited from earlier work
[15] = tested on: HepG2 cells, primary human hepatocytes; conditions: In vitro Assay; ref Garside 2014; cited from earlier work
[16] = tested on: isolated mouse liver mitochondria; conditions: cited from earlier work
[17] = ref Chen 2011; cited from earlier work
rBsep = conditions: In vitro Assay; ref Dawson 2012; cited from earlier work
hLiMTs [18] = assay: Combined HCI (HCS) and cellular ATP 3D assay in hLiMTs; conditions: for AC50 / minimal effective concentration: Homo sapiens
HepaRG spheroids = assay: Combined HCI (HCS) and cellular ATP 3D assay in HepaRG spheroids; conditions: for AC50 / minimal effective concentration: Homo sapiens
HepG2 cells [19] = conditions: In vitro Assay; ref Persson 2013; cited from earlier work
[20] = In vitro Assay, ref Khetani 2012
[21] = Modeled in vitro assays (cytotoxicity, mitochondrial dysfunction, BSEP), ref Aleo et al. 2019
[22] = In vitro Assay, ref Proctor 2017
[23] = In vitro Assay, ref Porceddu 2012
[24] = Microtissue model structural based (HCI), combined HCS and ATP, MEC < 25 × Cmax.tot cut-off

CC(=O)Oc1ccccc1C(=O)O [aspirin]
-VE: Cellular toxicity (3T3 cells) [2] | Combined Assay [2] | GSH adduct HML [2] | Hepatocyte cellular toxicity [2] | MitoTox 3T3 [2] | TDI CYP3A4 [2] | hBSEP inhibition [2] | Structural based (HCI) (human hepatocytes) | In vivo DILI ([4]; ref Khetani 2012) | In vivo DILI ([4]; ref Schadt 2015) | In vivo DILI ([4]; ref Xu 2008) | HMPCC's (hu-MPCC; [20]) | RMPCC's (RMPCC's; [20])
+VE: DILI +VE (5-8), DILI -VE (-4) ([1]; ref Chen 2016) | Structural based (HCI) (HepG2 cells [3]) | In vivo DILI ([4]; ref O'Brien 2006)
vLess-DILI-Concern: DILI severity category ([1]; ref Chen 2016)

NC(=O)N1c2ccccc2C=Cc2ccccc21 [carbamazepine, reference compound]
-VE: Cellular toxicity (3T3 cells) [2] | Hepatocyte cellular toxicity [2] | MitoTox 3T3 [2] | TDI CYP3A4 [2] | hBSEP inhibition [2] | Partition Hybrid HRM Score ≥8, Aleo (2019) [7, 21] | Rule of Two hybrid HRM Score ≥8, Aleo (2019) [7, 21] | PHH/100xCmax, Proctor (2017) (PHH [8]; 2D PHH, ATP, IC50 < 100 × Cmax.tot, ref Proctor et al. 2017) | PHH/100uM, Proctor (2017) (PHH [8]; 2D PHH, ATP, IC50 threshold 100 µM, ref Proctor et al. 2017) | PHH ATP <100uM (PHH [8]; [22]) | hLiMTs ATP <100uM (hLiMTs [9]; [22]) | hLiMTs/100uM, Proctor (2017) (hLiMTs [9]; hLiMTs, ATP, IC50 threshold 100 µM, ref Proctor et al. 2017) | THLE-Null [14] | THLE-Null/3A4 [14] | Cluster 1-6 +VE Assay [15] | Inhibition of rBsep cutoff<1& cmax u>.2 (rBsep) | Inhibition of rBsep cutoff<3 (rBsep)
Most: DILI severity category (Chen et al. [2016]) ([1]; LTKB DILIrank category, ref Chen et al. 2016) | DILI severity category (Chen 2016) ([1]; human DILI classification, LTKB DILIrank, ref Chen et al. 2016) | DILI severity category ([1]; human DILI severity, ref Chen et al.)
50.8 µM: Cmax [11]
343 µM: AC50 (HepaRG spheroids; HepaRG, read-out: HCS endpoint AC50)
+ve: hLiMTs <25x Avg Cmax ATP (hLiMTs [18]; hLiMTs, ATP endpoint, cut-off <25x Avg Cmax) | hLiMTs <25x Avg Cmax HCS (hLiMTs [18]; hLiMTs, HCS endpoints, cut-off <25x Avg Cmax) | hLiMTs <25x Avg Cmax All (hLiMTs [18]; hLiMTs, all endpoints (ATP and HCS), cut-off <25x Avg Cmax) | hLiMTs Cmax max All (hLiMTs [18]; hLiMTs, all endpoints, Cmax max used) | hLiMTs Cmax min All (hLiMTs [18]; hLiMTs, all endpoints, Cmax min used) | HepaRG <25x Avg Cmax ATP (HepaRG spheroids; HepaRG, ATP endpoint, cut-off <25x Avg Cmax) | HepaRG <25x Avg Cmax HCS (HepaRG spheroids; HepaRG, HCS endpoints, cut-off <25x Avg Cmax) | HepaRG <25x Avg Cmax All (HepaRG spheroids; HepaRG, all endpoints (ATP and HCS), cut-off <25x Avg Cmax) | HepaRG Cmax max All (HepaRG spheroids; HepaRG, all endpoints, Cmax max used) | HepaRG Cmax min All (HepaRG spheroids; HepaRG, all endpoints, Cmax min used)
12.190 µM: Human plasma Cmax,u [5]
+VE (Rule of Two hybrid HRM Score ≥3): Rule of Two hybrid HRM Score ≥3, Aleo (2019) [7, 21]
73.6 µM: minimal effective concentration (hLiMTs [18]; read-out: ATP endpoint MEC)
-ve: hLiMTs <10 uM All (hLiMTs [18]; hLiMTs, all endpoints, cut-off <10 uM) | HepaRG <10 uM All (HepaRG spheroids; HepaRG, all endpoints, cut-off <10 uM)
7: DILI Score (FDA) (1-8) [17]
+VE (IC50 < 100 × Cmax.tot): hLiMTs/100xCmax, Proctor (2017) (hLiMTs [9]; hLiMTs, ATP, IC50 < 100 × Cmax.tot, ref Proctor et al. 2017)
+VE (Partition Hybrid HRM Score ≥4): Partition Hybrid HRM Score ≥4, Aleo (2019) [7, 21]
vMost-DILI-Concern: DILI severity category ([1]; ref Chen 2016)
172 µM: minimal effective concentration (HepaRG spheroids; HepaRG, read-out: HCS endpoint MEC)
159 µM: AC50 (HepaRG spheroids; HepaRG, read-out: ATP endpoint AC50)
0.240: fu [12]
+VE: Cytotoxicity HepG2 48 hrs (HepG2) | DILI +VE (5-8), DILI -VE (-4) ([1]; ref Chen 2016) | DILI in vitro assay prediction, Schadt (2015) ([2]; BSEP & Metabolism based, ref Schadt et al. 2015) | Combined Assay [2] | GSH adduct HML [2] | Structural based (HCI) (HepG2 cells [6]; In vitro Assay, ref Tolosa 2012) | DILI in vitro assay prediction, Tolosa (2012) (HepG2 cells [6]; Structural based (HCI), HepG2, ref Tolosa et al. 2012) | Partition Hybrid HRM Score ([7]; In vitro Assay, ref Aleo 2019) | Ro2 Hybrid HRM Score ([7]; In vitro Assay, ref Aleo 2019) | Bayesian Machine Learning DILI prediction, Williams (2019) ([10]; Bayesian modeling, ref Williams et al. 2019) | Bayesian Machine Learning ([10]; In vitro Assay, ref Williams 2019) | In vivo DILI ([4]; […]) | In vivo DILI ([4]; ref Albrecht 2019) | In vivo DILI ([4]; ref Aleo 2019) | In vivo DILI ([4]; ref Dawson 2012) | In vivo DILI ([4]; ref Garside 2014) | In vivo DILI ([4]; ref Gustafsson 2014) | In vivo DILI ([4]; ref Porceddu 2012) | In vivo DILI ([4]; ref Proctor 2017) | In vivo DILI ([4]; ref Schadt 2015) | In vivo DILI ([4]; ref Tolosa 2012) | In vivo DILI ([4]; ref Williams 2019) | Cytotoxicity PHH 48 hrs (PHH [13]) | in vitro data EC2<=1x Cmax [16, 23] | in vitro data EC20<=2uM [16, 23]
226 µM: AC50 (hLiMTs [18]; read-out: HCS endpoint AC50)
81.5 µM: minimal effective concentration (HepaRG spheroids; HepaRG, read-out: ATP endpoint MEC)
3: Assigned DILI category ([4]; Chen et al. 2016 or literature alignment, ref Chen et al. 2016)
109 µM: minimal effective concentration (hLiMTs [18]; read-out: HCS endpoint MEC)
+ve (<100x Avg Cmaxu): hLiMTs <100x Avg Cmaxu ATP (hLiMTs [18]; hLiMTs, ATP endpoint, cut-off <100x Avg Cmaxu) | hLiMTs <100x Avg Cmaxu HCS (hLiMTs [18]; hLiMTs, HCS endpoints, cut-off <100x Avg Cmaxu) | hLiMTs <100x Avg Cmaxu All (hLiMTs [18]; hLiMTs, all endpoints, cut-off <100x Avg Cmaxu) | HepaRG <100x Avg Cmaxu ATP (HepaRG spheroids; HepaRG, ATP endpoint, cut-off <100x Avg Cmaxu) | HepaRG <100x Avg Cmaxu HCS (HepaRG spheroids; HepaRG, HCS endpoints, cut-off <100x Avg Cmaxu) | HepaRG <100x Avg Cmaxu All (HepaRG spheroids; HepaRG, all endpoints, cut-off <100x Avg Cmaxu)
+VE (MEC < 25 × Cmax.tot cut-off): DILI prediction hLiMTs (HCS-MEC) (hLiMTs [18]; [24]) | DILI prediction HepaRG spheroids (HCS-MEC) (HepaRG spheroids; [24])
145 µM: AC50 (hLiMTs [18]; read-out: ATP endpoint AC50)

O=C(O)c1cn(C2CC2)c2cc(N3CCNCC3)c(F)cc2c1=O [ciprofloxacin]
-VE: in vitro data EC20<=2uM [16]
+VE: HMPCC's (hu-MPCC) | RMPCC's (RMPCC's)

CCN(CC)CC(=O)Nc1c(C)cccc1C [lidocaine]
+VE: Structural based (HCI) (HepG2 cells [3]) | HMPCC's (hu-MPCC; [20]) | in vitro data EC20<=2uM [16, 23] | RMPCC's (RMPCC's; [20])
-VE: Cluser analysis (HepG2 cells [19]) | Structural based (HCI) (HepG2 cells [19])
